Assay [1] is described as follows: Luminescence Cell-Based/Microorganism Confirmation at Dose of Inhibitors of Trypanosoma cruzi Infection. [Related pubchem assays: 1885, 1968 ]. The class given is functional.
Assay [2] is described as follows: inhibitors of intracellular T. cruzi replication, confirmation, NIH3T3 host cells, beta-gal luminescence (AID 2044).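 Further: intracellular parasites grown in NIH/3T3 mouse fibroblasts as host cells; luminescent beta-galactosidase reporter signal from transgenic T. cruzi replicating inside host cells; inhibitors lower the luminescence signal.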 The class given is functional, cell-based.
Assay [3] can be described thus: Luminescence Cell-Based Secondary HTS screen to identify cytotoxic compounds of NIH3T3 cells. [Related pubchem assays: 1885, 1968 ]. The class given is functional.
Assay [4] can be described thus: cytotoxicity toward NIH3T3 fibroblasts, dose response, counter-screen, cell-based, ATP luminescence, mouse fibroblasts (AID 2010).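 Further: cells exposed to compound for about 90 hours before reading.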 The class given is functional. In general terms: The purpose of a counterscreen is to sort out artefacts and off-target activity.
The nature of assay [5]: inhibitors of Trypanosoma cruzi host-cell infection, confirmation, beta-gal luminescence, NIH3T3 host cells (AID 2630). The class given is functional, cell-based. The following applies: Mus musculus.
The nature of assay [6]: T. cruzi growth inhibition in host cells, dose response, cell-based, plate reader, dry powder, set 2 (AID 652275). The class given is functional.
The nature of assay [7]: T. cruzi intracellular amastigote growth inhibition, dose response, imaging, CA-I/72 strain, bovine embryo skeletal muscle, dry powder (AID 651885). The class given is functional, cell-based.
The next assay has as its target Large T antigen (Simian virus 40, UniProt P03070). The class given is functional, Betapolyomavirus macacae.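 Further: Confirmatory-stage PubChem screen for compounds that inhibit SV40 T antigen.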
Assay [8] addresses T1, Mannose-6-phosphate isomerase (Homo sapiens, UniProt P34949).
T1 sequence (P34949 whole entry): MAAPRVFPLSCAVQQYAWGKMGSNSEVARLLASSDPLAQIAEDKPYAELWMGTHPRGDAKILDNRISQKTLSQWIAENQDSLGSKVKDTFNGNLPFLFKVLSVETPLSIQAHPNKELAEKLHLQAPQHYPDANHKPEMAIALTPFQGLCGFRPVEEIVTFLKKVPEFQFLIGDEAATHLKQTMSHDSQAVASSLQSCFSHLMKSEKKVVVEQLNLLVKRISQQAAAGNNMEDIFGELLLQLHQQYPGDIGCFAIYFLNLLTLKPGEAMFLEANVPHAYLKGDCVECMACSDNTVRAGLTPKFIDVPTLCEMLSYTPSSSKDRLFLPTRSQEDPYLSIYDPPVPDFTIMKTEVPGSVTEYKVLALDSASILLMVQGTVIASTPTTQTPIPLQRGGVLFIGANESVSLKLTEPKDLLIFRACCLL
Put plainly: inhibitors of human PMI, primary screen, biochemical, fluorescence intensity, coupled assay (AID 1209).

The target in assay [9] is T1, Mannose-6-phosphate isomerase. Kind of assay: human PMI inhibitors, high substrate, primary screen, biochemical, fluorescence intensity, high mannose 6-phosphate (AID 1220).
Assay [10] has as its target FAD-linked sulfhydryl oxidase ALR (Homo sapiens, UniProt P55789). Kind of assay: inhibitors of human ALR sulfhydryl oxidase, dose response, biochemical, H2O2 detection, luminescence, cherry-pick (AID 493248).
Assay [11] can be described thus: Counterscreen for IDE inhibitors: Luminescence-based cell-based high throughput dose response assay to identify compounds that are cytotoxic to HEK cells. [Related pubchem assays: 434962 (Primary screen (IDE inhibitors in singlicate)), 449730 (Counterscreen (Cytotoxicity in triplicate)), 435028 (Confirmation (IDE inhibitors in triplicate)) …. The class given is functional. Particulars: HEK293.

The target of another assay is T2, Insulin-degrading enzyme (Homo sapiens, UniProt P14735).
T2 sequence (P14735 whole entry): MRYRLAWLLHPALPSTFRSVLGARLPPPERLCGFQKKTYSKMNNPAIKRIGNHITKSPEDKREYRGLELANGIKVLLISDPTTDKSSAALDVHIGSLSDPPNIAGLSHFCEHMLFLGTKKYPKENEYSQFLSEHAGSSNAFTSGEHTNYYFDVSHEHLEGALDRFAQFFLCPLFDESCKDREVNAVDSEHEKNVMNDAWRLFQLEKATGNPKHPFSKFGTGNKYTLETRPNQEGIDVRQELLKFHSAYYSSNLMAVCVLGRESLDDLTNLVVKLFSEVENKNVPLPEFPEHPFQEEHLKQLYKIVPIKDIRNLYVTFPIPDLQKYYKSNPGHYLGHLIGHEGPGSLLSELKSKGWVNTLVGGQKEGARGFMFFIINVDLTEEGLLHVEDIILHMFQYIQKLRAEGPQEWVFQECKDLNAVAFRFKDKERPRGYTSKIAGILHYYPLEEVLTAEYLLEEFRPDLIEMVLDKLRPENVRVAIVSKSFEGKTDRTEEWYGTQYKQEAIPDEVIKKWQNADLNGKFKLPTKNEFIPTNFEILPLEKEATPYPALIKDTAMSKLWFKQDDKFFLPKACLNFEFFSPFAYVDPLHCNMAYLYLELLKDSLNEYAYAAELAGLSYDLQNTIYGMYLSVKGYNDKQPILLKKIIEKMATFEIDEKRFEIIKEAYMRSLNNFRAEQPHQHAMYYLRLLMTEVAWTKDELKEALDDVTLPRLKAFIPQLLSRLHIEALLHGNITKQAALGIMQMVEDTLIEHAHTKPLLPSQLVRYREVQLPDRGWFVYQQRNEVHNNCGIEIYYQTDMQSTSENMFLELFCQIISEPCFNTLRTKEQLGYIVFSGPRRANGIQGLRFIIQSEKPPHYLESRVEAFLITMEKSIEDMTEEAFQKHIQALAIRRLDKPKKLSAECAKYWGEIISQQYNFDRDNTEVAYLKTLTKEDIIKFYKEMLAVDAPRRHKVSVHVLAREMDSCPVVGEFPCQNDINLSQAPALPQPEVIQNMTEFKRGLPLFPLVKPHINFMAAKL
Kind of assay: Dose Response: Fluorescence polarization-based cell-based high throughput dose response assay for inhibitors of insulin-degrading enzyme (IDE). [Related pubchem assays: 434962 (Primary screen (IDE inhibitors in singlicate)), 449730 (Counterscreen (Cytotoxicity in triplicate)), 435028 (Confirmation (IDE inhibitors in triplicate)), 434984 (Summary …. The class given is functional.

Assay [12] has as its target Induced myeloid leukemia cell differentiation protein Mcl-1 (Homo sapiens, UniProt Q07820). Kind of assay: MCL1-BIM BH3 interaction inhibitors, dose response, biochemical, fluorescence polarization, BIM-BH3 peptide, 1536-well (AID 2217). Background: Fluorescence polarisation rises when a labelled molecule tumbles more slowly, as on binding a larger partner.
A further assay addresses Bcl-2-like protein 1 (Homo sapiens, UniProt Q07817). Kind of assay: BCL-XL inhibitors, dose response, selectivity assay for MCL1 inhibitor project, biochemical, fluorescence polarization, 1536-well (AID 2218).
Assay [13] addresses T3, Endoribonuclease toxin MazF (Escherichia coli K-12, UniProt P0AE70).
T3 sequence (P0AE70 whole entry): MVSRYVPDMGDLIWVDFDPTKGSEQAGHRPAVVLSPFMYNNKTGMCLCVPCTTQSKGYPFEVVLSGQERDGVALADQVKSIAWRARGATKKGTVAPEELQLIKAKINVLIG
Kind of assay: MazF toxin RNase activators, dose response, biochemical, fluorescence, single-stranded RNA substrate, uHTS hits (AID 588481). The class given is functional.

The target in assay [14] is T3, Endoribonuclease toxin MazF. Put plainly: fluorescent RNA oligo signal without MazF, dose response, counter-screen for MazEF activator project, biochemical, fluorescence, single-stranded RNase substrate (AID 588502). The class given is functional.
In another assay the target is Albumin (Bos taurus, UniProt P02769). Kind of assay: Counterscreen for inhibitors of T-cell receptor (TCR)-CD3 interaction: Fluorescence-based biochemical high throughput dose response assay to identify inhibitors of T-cell receptor (TCR)-CD3 interaction using a TAMRA-labeled BSA probe. The class given is functional.
Chain of Albumin (P02769 whole entry): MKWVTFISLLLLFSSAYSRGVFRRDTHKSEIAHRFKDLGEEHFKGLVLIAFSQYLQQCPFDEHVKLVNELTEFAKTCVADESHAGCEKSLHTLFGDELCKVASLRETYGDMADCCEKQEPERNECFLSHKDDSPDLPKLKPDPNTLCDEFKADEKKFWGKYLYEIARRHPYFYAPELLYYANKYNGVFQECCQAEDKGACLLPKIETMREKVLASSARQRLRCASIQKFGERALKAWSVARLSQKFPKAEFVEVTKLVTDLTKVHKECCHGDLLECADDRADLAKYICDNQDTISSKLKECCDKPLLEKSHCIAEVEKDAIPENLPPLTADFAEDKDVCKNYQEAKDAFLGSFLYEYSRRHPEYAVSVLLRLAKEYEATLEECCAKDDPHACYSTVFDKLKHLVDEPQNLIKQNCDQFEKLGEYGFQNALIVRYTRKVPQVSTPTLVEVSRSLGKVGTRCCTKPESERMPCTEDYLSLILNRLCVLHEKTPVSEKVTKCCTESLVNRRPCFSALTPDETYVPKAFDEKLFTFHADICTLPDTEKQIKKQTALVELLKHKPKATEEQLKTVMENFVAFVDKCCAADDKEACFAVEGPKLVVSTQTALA
Assay [15] deals with T4, Heat shock 70 kDa protein 1A (Homo sapiens, UniProt P0DMV8). Kind of assay: Hsp70 inhibitors, biochemical, TR-FRET (AID 786). On the technique in general: In TR-FRET formats the signal depends on donor and acceptor labels being close together.
T4 sequence (P0DMV8 whole entry): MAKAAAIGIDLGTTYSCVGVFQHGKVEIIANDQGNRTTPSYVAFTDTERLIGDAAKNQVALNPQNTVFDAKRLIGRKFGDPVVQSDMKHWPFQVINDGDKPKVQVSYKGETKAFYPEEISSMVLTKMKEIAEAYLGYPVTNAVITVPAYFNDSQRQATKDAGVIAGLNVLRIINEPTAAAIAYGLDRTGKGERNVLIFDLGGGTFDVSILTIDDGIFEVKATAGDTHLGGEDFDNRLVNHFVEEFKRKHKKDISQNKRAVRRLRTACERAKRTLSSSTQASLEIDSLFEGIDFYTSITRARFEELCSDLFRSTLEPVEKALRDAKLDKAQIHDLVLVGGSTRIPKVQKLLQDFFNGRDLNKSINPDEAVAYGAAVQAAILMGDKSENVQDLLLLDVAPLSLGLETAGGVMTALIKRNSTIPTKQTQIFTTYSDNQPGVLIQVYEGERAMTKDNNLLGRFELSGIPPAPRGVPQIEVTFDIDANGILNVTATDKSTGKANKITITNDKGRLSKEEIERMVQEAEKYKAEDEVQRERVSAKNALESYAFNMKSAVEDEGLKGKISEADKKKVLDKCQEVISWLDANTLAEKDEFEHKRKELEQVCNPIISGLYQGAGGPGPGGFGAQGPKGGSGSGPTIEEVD
The target in assay [16] is T4, Heat shock 70 kDa protein 1A. Kind of assay: Hsp70 inhibitors, probe displacement, primary screen, biochemical, fluorescence polarization (AID 583).
Assay [17] addresses Sphingosine 1-phosphate receptor 2 (Homo sapiens, UniProt O95136). Put plainly: Dose Response Cell Based Assay for Agonists of the S1P2 Receptor of Purchased Analogues. [Related pubchem assays: 729, 843, 854, 736 ]. The class given is functional.

The source made the active and inactive calls.

Chain of Large T antigen (P03070 whole entry): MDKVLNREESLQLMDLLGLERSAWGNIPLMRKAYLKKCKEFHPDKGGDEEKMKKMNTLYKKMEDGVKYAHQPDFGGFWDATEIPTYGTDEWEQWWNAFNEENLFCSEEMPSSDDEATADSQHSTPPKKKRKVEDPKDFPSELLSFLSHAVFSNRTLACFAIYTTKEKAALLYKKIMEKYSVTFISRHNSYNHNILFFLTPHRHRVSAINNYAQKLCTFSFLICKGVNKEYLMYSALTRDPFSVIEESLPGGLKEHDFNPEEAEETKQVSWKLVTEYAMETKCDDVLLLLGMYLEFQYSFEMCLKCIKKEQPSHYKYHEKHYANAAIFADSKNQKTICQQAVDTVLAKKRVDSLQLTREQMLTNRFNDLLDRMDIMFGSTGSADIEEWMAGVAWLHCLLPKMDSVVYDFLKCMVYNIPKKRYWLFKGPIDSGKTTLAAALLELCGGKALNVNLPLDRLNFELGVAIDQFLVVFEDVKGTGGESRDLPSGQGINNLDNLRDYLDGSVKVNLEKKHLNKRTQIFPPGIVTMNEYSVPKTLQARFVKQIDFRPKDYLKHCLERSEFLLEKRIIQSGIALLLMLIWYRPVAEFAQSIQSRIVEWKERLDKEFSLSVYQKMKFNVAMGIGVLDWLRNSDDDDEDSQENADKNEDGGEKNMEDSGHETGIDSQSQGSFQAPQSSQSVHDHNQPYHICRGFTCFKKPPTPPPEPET
Chain of Bcl-2-like protein 1 (Q07817 whole entry): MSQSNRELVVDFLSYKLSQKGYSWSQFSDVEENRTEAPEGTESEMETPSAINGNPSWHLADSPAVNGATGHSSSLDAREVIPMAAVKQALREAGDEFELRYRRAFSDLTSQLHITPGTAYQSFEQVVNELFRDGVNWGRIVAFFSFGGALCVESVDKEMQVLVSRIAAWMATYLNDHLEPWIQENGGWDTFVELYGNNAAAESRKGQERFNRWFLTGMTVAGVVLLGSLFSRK
Chain of Sphingosine 1-phosphate receptor 2 (O95136 whole entry): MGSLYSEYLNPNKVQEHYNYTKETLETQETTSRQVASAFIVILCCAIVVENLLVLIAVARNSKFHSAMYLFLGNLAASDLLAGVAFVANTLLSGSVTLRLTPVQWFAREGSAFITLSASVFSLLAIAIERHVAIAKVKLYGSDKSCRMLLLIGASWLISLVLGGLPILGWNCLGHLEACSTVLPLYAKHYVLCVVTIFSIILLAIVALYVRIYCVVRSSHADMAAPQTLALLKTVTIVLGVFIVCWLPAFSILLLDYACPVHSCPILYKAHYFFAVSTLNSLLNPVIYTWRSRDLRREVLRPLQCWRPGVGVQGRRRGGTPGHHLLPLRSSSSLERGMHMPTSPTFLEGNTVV
Chain of Induced myeloid leukemia cell differentiation protein Mcl-1 (Q07820 whole entry): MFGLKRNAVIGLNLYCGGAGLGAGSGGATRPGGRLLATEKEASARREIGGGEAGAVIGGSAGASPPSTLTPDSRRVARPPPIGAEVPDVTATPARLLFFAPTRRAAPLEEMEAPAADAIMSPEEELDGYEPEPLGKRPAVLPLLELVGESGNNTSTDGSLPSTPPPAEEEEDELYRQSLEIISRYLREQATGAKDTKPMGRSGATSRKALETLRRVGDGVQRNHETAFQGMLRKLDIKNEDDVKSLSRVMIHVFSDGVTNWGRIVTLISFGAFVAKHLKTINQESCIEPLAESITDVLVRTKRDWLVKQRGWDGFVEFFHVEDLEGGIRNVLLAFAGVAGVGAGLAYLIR
Chain of FAD-linked sulfhydryl oxidase ALR (P55789 whole entry): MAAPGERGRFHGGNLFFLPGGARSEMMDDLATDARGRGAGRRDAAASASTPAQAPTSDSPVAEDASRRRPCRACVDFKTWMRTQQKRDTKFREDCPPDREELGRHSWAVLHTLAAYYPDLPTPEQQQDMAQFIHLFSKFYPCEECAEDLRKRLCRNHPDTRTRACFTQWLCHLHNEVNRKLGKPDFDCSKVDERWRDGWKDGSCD

For orientation: EC50 means the concentration giving half of the maximal effect. Usually AC50 stands for the midpoint of the concentration-response curve, whichever way the signal moves. The term IC50 denotes the concentration at which inhibition is half-maximal. On to `CCCn1ncc(CN2CCCC(C(=O)c3cccc(OC(C)C)c3)C2)c1C` (configuration not stated), for which the EC50 in [1] was 0.047 µM (active); in assay [2] it was < 0.1 µM (active); in [3] it was > 195 µM (not active); in assay [4], > 60 µM (not active); in [5], 0.047 µM (active); in “cells” it was 0.054 µM (active). The concentration at half-maximal activity (AC50) in [6] was 0.0589 µM (active). In addition, the IC50 in [7] is > 20 µM (inactive).

With `CCn1c(=O)n(CC)c2cc(N)ccc21`, the 50% inhibitory concentration (IC50) on Large T antigen was 14 µM (active); in [8] it was > 50 µM (not active); in [9], > 50 µM (not active). In addition, the AC50 in assay [10] was 0.754 µM (active).

Take `CCCN1C(=O)/C(=C/c2ccc(N3CCOCC3)cc2)NC1=S`: the values for the 50% inhibitory concentration (IC50) (in [11]; against Insulin-degrading enzyme) were 19 µM (not active) and 33.1 µM (not active), respectively.

Consider `O=c1cc(-c2ccc(O)c(O)c2)oc2c1ccc1ccccc12`, for which the IC50 is 23.8 µM (not active) in assay [12], > 109 µM (not active) against Bcl-2-like protein 1 and > 94.1 µM (inactive) at Albumin. In addition, the EC50 in [13] and in assay [14] was > 99 µM (inactive) throughout.

For the compound `Cc1cc(NC(=O)CSc2ncnc3ccccc23)no1`, the IC50 in assay [15] and in assay [16] was > 100 µM (not active) throughout.

For `Cc1cc(C(=O)CN(C)CC(=O)NC(C)(C)C)c(C)n1Cc1ccccc1`, in assay [17], the EC50 is listed as > 30 µM (not active).
